Test results published in article PMC9304066, “H2S biogenesis by cystathionine beta-synthase: mechanism of inhibition by aminooxyacetic acid and unexpected role of serine” (Cellular and Molecular Life Sciences: CMLS, 2022).
Values joined by “and” are separate entries in the source; they are usually repeats but may differ in a detail not shown here. Identical values can stand only once.

Columns and labels:
tScCBS [1] = target: T1, tScCBS (Saccharomyces cerevisiae, UniProt P32582); experiment: CBS H2S production assay (AzMC fluorometric), tScCBS; assay type: biochemical
T1 construct: 6xHis (C); made in house
T1 sequence (P32582 1-345): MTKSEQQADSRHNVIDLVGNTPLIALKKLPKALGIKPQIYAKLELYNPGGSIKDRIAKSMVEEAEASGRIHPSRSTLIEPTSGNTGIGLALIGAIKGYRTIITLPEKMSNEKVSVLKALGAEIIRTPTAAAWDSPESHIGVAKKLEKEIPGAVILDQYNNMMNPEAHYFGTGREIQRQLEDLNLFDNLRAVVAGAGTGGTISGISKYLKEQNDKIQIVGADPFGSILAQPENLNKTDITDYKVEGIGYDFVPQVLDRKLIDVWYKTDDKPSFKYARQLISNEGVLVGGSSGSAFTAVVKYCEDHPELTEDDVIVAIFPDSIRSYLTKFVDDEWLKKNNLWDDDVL
Protocol: (§1) CBS H2S production assay. H2S-producing activity of CBS, utilizing Cys and Hcy, was determined using a fluorometric assay employing the H2S-selective fluorescent probe 7-azido-4-methylcoumarin (AzMC) as described previously. The reaction mixture in a total volume of 200 µL contained 50 mM Tris–HCl pH 8.6, 5 μM PLP, 2 mM Hcy, 10 μM AzMC and 500 ng tScCBS or HsCBS. The plate was incubated for 10 min at 37°C and the enzymatic activity was triggered by adding 0–50 mM Cys. The fluorescence of the mixtures at 450 nm (excited at 365 nm) was followed for 2 h at 37°C. All measurements were performed in triplicates using Tecan Infinite 200 PRO microplate reader. Kinetic data were analyzed using GraphPad Prism software.

tScCBS [2] = target: T1, tScCBS; experiment: Kinetics of AOAA binding to tScCBS and displacement by substrate, followed by absorption spectra
Protocol: UV − Vis and fluorescence spectroscopy. Absorption spectra were collected on a Tecan Infinite M200 Pro spectrophotometer in a buffer containing 50 mM Tris–HCl pH 8.5, 20 mM NaCl and 0.5 mM tris(2-carboxyethyl)phosphine (TCEP). All the spectra were carried out with a protein concentration of 1 mg/mL with a 1 cm path-length quartz cuvette in a total volume of 150 µL. tScCBS was titrated directly in a cuvette by successive additions of different concentrations of AOAA, Ser and Cys, respectively, and spectra were recorded between 240 and 600 nm after an incubation time of 3 min at RT. Fluorescence emission spectra were collected under the same conditions upon PLP excitation at 410 nm. Blank spectra were subtracted from sample spectra.
Fig. 2 Spectroscopic rescue of AOAA-inhibited tScCBS by Ser. A Changes in the absorption spectra of tScCBS upon addition of 20 µM AOAA (cyan lines) followed for 1 h. Subsequently, 1 mM Ser (gray lines) was added and spectral changes were followed for additional 1 h. B Representative kinetic fitting of AOAA binding to tScCBS followed at 412 nm. C Representative kinetic fitting of AOAA displacement from tScCBS by Ser by following changes at 370 nm and 460 nm. The kinetic parameters of the observed processes are shown as insets in panels B and C. Far-UV (D) and near-UV (E) CD spectra of tScCBS (black), tScCBS complexed with 20 µM AOAA (cyan) or 1 mM Ser (magenta) and tScCBS complexed with 20 µM AOAA followed by 1 h incubation with 1 mM Ser (green).

HsCBS = target: T2, HsCBS (Homo sapiens, UniProt P35520, DEL516-525); experiment: CBS H2S production assay (AzMC fluorometric), HsCBS; assay type: biochemical; conditions: for IC50: AzMC assay, 5 mM Cys + 2 mM Hcy
T2 construct: purchased GenScript
T2 sequence (P35520 with tags, fused parts or gaps DEL516-525): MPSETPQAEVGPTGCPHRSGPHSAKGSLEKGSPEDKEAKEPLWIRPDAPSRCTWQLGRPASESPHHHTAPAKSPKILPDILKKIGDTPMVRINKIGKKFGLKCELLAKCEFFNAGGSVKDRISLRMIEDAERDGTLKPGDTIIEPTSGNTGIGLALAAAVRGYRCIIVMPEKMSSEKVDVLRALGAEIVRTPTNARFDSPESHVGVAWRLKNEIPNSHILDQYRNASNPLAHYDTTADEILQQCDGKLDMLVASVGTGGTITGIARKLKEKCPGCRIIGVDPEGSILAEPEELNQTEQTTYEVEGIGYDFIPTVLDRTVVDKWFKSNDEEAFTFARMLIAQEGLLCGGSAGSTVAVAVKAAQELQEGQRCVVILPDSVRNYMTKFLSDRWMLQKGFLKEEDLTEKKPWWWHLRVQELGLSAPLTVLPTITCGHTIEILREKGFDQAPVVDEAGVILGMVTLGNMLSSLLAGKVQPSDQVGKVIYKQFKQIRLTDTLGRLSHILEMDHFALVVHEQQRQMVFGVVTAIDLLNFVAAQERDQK
Protocol: as §1

HEK293 cells = experiment: Detection of H2S production in live cells (AzMC imaging); assay type: cell-based, human
Protocol: Cell culture. The human embryonic kidney cell line HEK293 (ATCC CRL-1573) was cultured in Dulbecco’s Modified Eagle Medium (DMEM) containing 4.5 g/L glucose. The culture medium was supplemented with 10% (v/v) heat-inactivated fetal bovine serum, 2 mM Glutamax, non-essential amino acids, 100 U/ml penicillin and 100 μg/ml streptomycin. Cells were grown in a humidified incubator at 37 °C and 5% CO2 atmosphere. Cell viability and proliferation were assessed using MTT and BrdU assay, respectively, essentially as described previously. Detection of H2S production in live cells. Cells were seeded in black 96-well plates with optical bottom (15,000 cells/well). The following morning, the cells were treated with 150 µM AOAA, 1/3/10 mM Ser or their combination for 24 h. After that the culture medium was replaced with Hank’s Balanced Salt Solution (HBSS) buffer supplemented with 100 μM AzMC and further incubated for 1 h. Dye’s specific fluorescence was visualized using a Leica DFC360 FX microscope and images were captured with Leica Application Suite X software (Leica Biosystems, Germany). Images were analyzed with ImageJ software (version 1.8.0; NIH, Bethesda, MD, USA) and data were analyzed using GraphPad Prism 8 (GraphPad Software Inc.; San Diego, CA, USA).

| SMILES | Inhibition of CBS activity (tScCBS [1]; 200 µM AOAA, then excess removed by desalting column, range printed for tScCBS and HsCBS together) | IC50 (tScCBS [1]; tScCBS, AzMC assay, 5 mM Cys + 2 mM Hcy) | Rate constant k of PLP-AOAA oxime intermediate formation (tScCBS [2]; 20 µM AOAA added to tScCBS, followed at 412 nm) | IC50 (HsCBS; HsCBS in the absence of SAM) | IC50 (HsCBS; HsCBS in the presence of 500 µM SAM) | H2S-producing activity, % of the controls (HEK293 cells; HEK293, 150 µM AOAA, 24 h) | Recovery of activity of AOAA-inhibited enzyme (tScCBS [1]; tScCBS, 1 mM Ser after 200 µM AOAA incubation, then desalting) | Rate constant k of AOAA displacement from tScCBS by Ser (tScCBS [2]; 1 mM Ser added after 1 h with 20 µM AOAA, changes at 370 nm and 460 nm) | Slower formation of PLP-aminoacrylate intermediate compared with PLP-AOAA oxime formation (tScCBS [2]; 1 mM Ser after 20 µM AOAA) | Recovery of activity of AOAA-inhibited enzyme (HsCBS; HsCBS in the absence and presence of SAM, 1 mM Ser after 200 µM AOAA incubation, then desalting) | Reduction of cellular H2S productivity (HEK293 cells; HEK293, 10 mM Ser in growth medium) | Reduction of H2S production (HEK293 cells; HEK293, Ser added to medium (1/3/10 mM, 24 h), concentration-dependent, 'up to') | Recovery of H2S-producing capacity, % of control WT activity (HEK293 cells; HEK293 inhibited by 150 µM AOAA, with 1, 3 or 10 mM Ser) |
| --- | --- | --- | --- | --- | --- | --- | --- | --- | --- | --- | --- | --- | --- |
| NOCC(=O)O [AOAA, aminooxyacetic acid] | 75–92% | 9.1 µM | 0.22 min⁻¹ and 0.22 ± 0.05 min⁻¹ | 12.8 µM | 10.9 µM | ~ 15% |  |  |  |  |  |  |  |
| N[C@@H](CO)C(=O)O [Ser, serine] |  |  |  |  |  |  | substantial recovery | 0.07 ± 0.01 min⁻¹ | approximately 3 × | substantial recovery | ~ 29% | ~ 30% | 82–89% |
